Measured values reported in patent publication US7326715B2, “4-Phenyl-6-substituted-pyrimidine-2-carbonitrile derivatives” (N.V. Organon, priority 2005, dated 2008).
Where a name gives a salt, the structure may show the parent alone.

Biological target: T1, recombinant human Cathepsin K (Homo sapiens, UniProt P43235)
T1 sequence (P43235 115-329): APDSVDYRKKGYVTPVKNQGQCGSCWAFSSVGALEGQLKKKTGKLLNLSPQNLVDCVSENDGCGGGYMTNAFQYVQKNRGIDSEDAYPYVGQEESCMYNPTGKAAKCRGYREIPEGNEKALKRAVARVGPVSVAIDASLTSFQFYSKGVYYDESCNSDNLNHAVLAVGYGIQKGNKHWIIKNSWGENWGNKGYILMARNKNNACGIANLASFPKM
Assay: Cathepsin K activity: inhibition of recombinant human Cathepsin K (Z-Phe-Arg-AMC fluorescence)
Type: biochemical
Conditions: substrate Z-Phe-Arg-AMC, pH 5.5, fluorescence at 10 minutes, read-out: pIC50 (negative logarithm of the IC50 concentration) for inhibition of human cathepsin K (converted)
Procedure: To a 384 well microtitre plate is added 5 μl of a 100 μM solution of test compound in assay buffer (100 mM sodium acetate pH 5.5, 5 mM EDTA, 5 mM dithiothreitol) with 10% dimethylsulfoxide (DMSO), plus 10 μl of 100 μM solution of the substratre Z-Phe-Arg-AMC (Bachem; 7-amido-coumarine derivative of the dipeptide N-benzyloxycarbonyl-Phe-Arg-OH) in assay buffer and 25 μl of assay buffer. 10 μl of a 1 mg/l solution of activated recombinant human cathepsin K, in assay buffer, is then added to the well, yielding a final inhibitor concentration of 10 μM. Enzyme activity is determined by measuring the fluorescence of the liberated aminomethylcoumarin at […] using 390 nm excitation, at 10 minutes. Percentage enzyme activity is calculated by comparison of this activity to that of a solution containing no inhibitor. Compounds are subsequently subjected to a dose response curve analysis in order to determine IC50 values for active compounds (where IC50 is the concentration of test compound causing 50% inhibition of the enzymatic activity).
Compounds of the invention typically have a pIC50 (negative logarithm of the IC50 concentration) for inhibition of human cathepsin K of more than 6, preferably more than 7 and most preferably a pIC50 of more than 8, such as for the compounds of Examples 1, 2a, 2b, 3, 5, 6, 8, 12, 14, 13, 16k, 16n, 16o, 17, 22a, 22b, 22c

Row | Compound | IC50 [nM]
1 | N#Cc1nc(-c2cccc(C(F)(F)F)c2)cc(N2CCNCC2)n1 [Example 1, 4-(Piperazin-1-y)l-6-(3-trifluoromethylphenyl)-pyrimidine-2-carbonitrile] | < 10
2 | COCCN1CCN(c2cc(-c3cccc(C(F)(F)F)c3)nc(C#N)n2)CC1 [Example 2a, 4-[4-(2-Methoxy-ethyl)-piperazin-1-yl]-6-(3-trifluoromethy-phenyl)-pyrimidine-2-carbonitrile] | < 10
3 | N#Cc1nc(-c2cccc(C(F)(F)F)c2)cc(N2CCN(CC(N)=O)CC2)n1 [Example 2b, 4-(4-carbamoylmethyl-piperazin-1-yl)-6-(3-trifluoromethyl-phenyl)-pyrimidine-2-carbonitrile] | < 10
4 | N#Cc1nc(-c2cccc(C(F)(F)F)c2)cc(N2CCN(CCC(=O)O)CC2)n1 [Example 5, 4-[4-(2-carboxy-ethyl)-piperazin-1-yl]-6-(3-trifluoromethyl-phenyl)-pyrimidine-2-carbonitrile trifluoroacetic acid salt] | < 10
5 | N#Cc1nc(-c2cccc(C(F)(F)F)c2)cc(N2CCN(CC3CC3)CC2)n1 [Example 6, 4-(4-Cyclopropylmethyl-piperazin-1-yl)-6-(trifluoromethyl-phenyl)-pyrimidine-2-carbonitrile trifluoroacetic acid salt] | < 10
6 | N#Cc1nc(-c2cccc(C(F)(F)F)c2)cc(N2CCN(C3CC3)CC2)n1 [Example 8, 4-(4-Cyclopropyl-piperazin-1-yl)-6-(trifluoromethyl-phenyl)-pyrimidine-2-carbonitrile hydrochloric acid salt] | < 10
7 | CN1CCN(c2cc(-c3cccc(C(F)(F)F)c3)nc(C#N)n2)CC1(C)C [Example 12, 4-(3,3,4-Trimethyl-piperazin-1-yl)-6-(3-trifluoromethyl-phenyl)-pyrimidine-2-carbonitrile] | < 10
8 | N#Cc1nc(-c2cccc(C(F)(F)F)c2)cc(N2CCCNCC2)n1 [Example 13, 4-[1,4]Diazepan-1-yl-6-(3-trifluoromethylphenyl)-pyrimidine-2-carbonitrile] | < 10
9 | CN1CCCN(c2cc(-c3cccc(C(F)(F)F)c3)nc(C#N)n2)CC1 [Example 14, 4-(4-Methyl-[1,4]diazepan-1-yl)-6-(3-trifluoromethyl-phenyl)-pyrimidine-2-carbonitrile] | < 10
10 | CN1CCC(N(C)c2cc(-c3cccc(C(F)(F)F)c3)nc(C#N)n2)CC1 [Example 16k, 4-[Methyl-(1-methyl-piperidin-4-yl)-amino]-6-(3-trifluoromethyl-phenyl)-pyrimidine-2-carbonitrile trifluoroacetic acid salt] | < 10
11 | N#Cc1nc(NCc2nnn[nH]2)cc(-c2cccc(C(F)(F)F)c2)n1 [Example 16n, 4-[(1H-Tetrazol-5-ylmethyl)-amino]-6-(3-trifluoromethyl-phenyl)-pyrimidine-2-carbonitrile] | < 10
12 | N#Cc1nc(NCC(=O)O)cc(-c2cccc(C(F)(F)F)c2)n1 [Example 16o, 4-(Carboxymethyl-amino)-6-(3-trifluoromethyl-phenyl)-pyrimidine-2-carbonitrile] | < 10
13 | COc1ccc(-c2cc(N3CCNCC3)nc(C#N)n2)cc1C(F)(F)F [Example 17, 4-(4-Methoxy-3-trifluoromethyl-phenyl)-6-piperazin-1-yl-pyrimidine-2-carbonitrile] | < 10
14 | N#Cc1nc(OCCN2CCCCC2)cc(-c2cccc(C(F)(F)F)c2)n1 [Example 22a, 4-(2-Piperidin-1-yl-ethoxy)-6-(3-trifluoromethyl-phenyl)-pyrimidine-2-carbonitrile] | < 10
15 | N#Cc1nc(OCCN2CCOCC2)cc(-c2cccc(C(F)(F)F)c2)n1 [Example 22b, 4-(2-Morpholin-4-yl-ethoxy)-6-(3-trifluoromethyl-phenyl)-pyrimidine-2-carbonitrile] | < 10
16 | CCN(CC)CCOc1cc(-c2cccc(C(F)(F)F)c2)nc(C#N)n1 [Example 22c, 4-(2-Diethylamino-ethoxy)-6-(3-trifluoromethyl-phenyl)-pyrimidine-2-carbonitrile] | < 10
